Results on 2 substances are retold here after patent EP0355039A2, “Methods and means for controlling the stability of proteins” (priority 1988, dated 1990).

Common to all, as to type: biochemical
Test [1] deals with T1, Actinoplanes missouriensis (DSM 43046) D-glucose isomerase EcoAmi(DSM) GI mutant K253R (Lys-253 to Arg) (Actinoplanes missouriensis, UniProt P12851, K253R).
T1 construct: made in house; host or cells: E. coli K514
The procedure: (§1) The enzymatic activity of glucose isomerase was assayed as described below (1 unit of enzymatic activity produces 1.0 micromole of product -D-xylulose or D-fructose- per minute; therefore, specific activity -spa- is expressed as units per mg of GI enzyme).
(§2) In the D-Sorbitol Dehydrogenase Coupled Assay, enzymatic determination of D-xylulose was performed at 35°C as previously described (Kersters-Hilderson et al., 1987) in 50mM triethanolamine, pH 7.5, 10mM MgSO₄, and 0.1 M xylose, in the presence of ∼ 2 x 10⁻⁸ M D-sorbitol dehydrogenase (L-iditol : NAD oxidoreductase, EC 1.1.1.14), and 0.15mM NADH, except that the incubation buffer also included 1mM ethylenebis(oxyethylenenitrilo)tetraacetic acid (EGTA). Glucose isomerase final concentration in this assay was about 2.5 x 10⁻³ mg/ml, and precisely determined as described above.
(§3) With glucose as a substrate, GI activity can be assayed by measuring the amount of D-fructose produced during the isomerization reaction using the cysteine-carbazole method which is based on the reaction of ketosugars with carbazole in acids to yield a purple product (Dische and Borenfreund, 1951).

Test [2] concerns the target T2, Actinoplanes missouriensis (DSM 43046) D-glucose isomerase EcoAmi(DSM) GI mutant K253Q (Lys-253 to Gln) (Actinoplanes missouriensis, UniProt P12851, K253Q).
T2 construct: made in house; host or cells: E. coli K514
The procedure: as §1, §2, §3

Test [3] has as its target T3, Actinoplanes missouriensis (DSM 43046) D-glucose isomerase (D-xylose isomerase, EC 5.3.1.5) EcoAmi(DSM) GI, wild type (WT-GI) (Actinoplanes missouriensis, UniProt P12851).
T3 construct: made in house; host or cells: E. coli K514
Briefly: Glucose isomerase catalytic parameters (D-sorbitol dehydrogenase coupled assay for D-xylose; cysteine-carbazole method for D-glucose). The procedure: as §1, §2, §3

Where [4] appears, read: D-xylose as substrate, coupled assay, 35°C, 50mM triethanolamine pH 7.5, 10mM MgSO4.

T1 sequence (P12851 whole entry K253R): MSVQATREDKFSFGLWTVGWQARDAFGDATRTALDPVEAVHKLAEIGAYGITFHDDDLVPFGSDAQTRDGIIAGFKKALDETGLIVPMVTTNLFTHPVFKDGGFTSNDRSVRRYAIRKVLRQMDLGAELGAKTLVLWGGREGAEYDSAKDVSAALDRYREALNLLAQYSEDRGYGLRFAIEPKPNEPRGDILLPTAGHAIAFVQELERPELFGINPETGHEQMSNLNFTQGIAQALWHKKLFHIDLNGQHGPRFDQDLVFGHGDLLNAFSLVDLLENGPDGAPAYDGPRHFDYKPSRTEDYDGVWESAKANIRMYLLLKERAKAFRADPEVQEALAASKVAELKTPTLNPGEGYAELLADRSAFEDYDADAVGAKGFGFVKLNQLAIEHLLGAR
T2 sequence (P12851 whole entry K253Q): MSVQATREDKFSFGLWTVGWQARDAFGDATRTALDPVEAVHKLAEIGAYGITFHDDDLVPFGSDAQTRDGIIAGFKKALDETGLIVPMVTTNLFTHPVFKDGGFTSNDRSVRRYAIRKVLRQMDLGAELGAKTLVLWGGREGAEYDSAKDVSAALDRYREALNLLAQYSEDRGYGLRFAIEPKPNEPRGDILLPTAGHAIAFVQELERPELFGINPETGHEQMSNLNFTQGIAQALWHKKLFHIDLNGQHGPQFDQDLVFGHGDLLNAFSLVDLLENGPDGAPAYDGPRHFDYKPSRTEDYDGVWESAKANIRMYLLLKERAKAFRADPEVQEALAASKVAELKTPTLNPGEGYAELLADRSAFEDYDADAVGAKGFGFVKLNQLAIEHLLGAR
T3 sequence (P12851 whole entry): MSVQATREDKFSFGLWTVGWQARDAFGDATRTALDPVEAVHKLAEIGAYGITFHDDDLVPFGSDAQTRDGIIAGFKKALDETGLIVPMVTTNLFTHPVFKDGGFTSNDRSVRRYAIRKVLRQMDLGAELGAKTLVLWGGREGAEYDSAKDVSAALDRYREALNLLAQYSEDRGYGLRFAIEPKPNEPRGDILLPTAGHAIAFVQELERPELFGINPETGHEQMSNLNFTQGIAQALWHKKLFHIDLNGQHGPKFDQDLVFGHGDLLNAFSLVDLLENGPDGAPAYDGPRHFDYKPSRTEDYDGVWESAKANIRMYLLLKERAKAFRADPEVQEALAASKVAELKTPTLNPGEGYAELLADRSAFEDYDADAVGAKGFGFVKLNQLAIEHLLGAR

D-glucose: the “Vmax (Glucose)” value is 27.2 units per mg of enzyme in test [1] (D-glucose as substrate), 29.0 units per mg of enzyme in test [2] (D-glucose as substrate) and 30.6 units per mg of enzyme in test [3] (D-glucose as substrate).

Broadly, the Km is the concentration of substrate that gives half-maximal velocity. In the case of D-xylose, the values for the Km in test [1] (setting [4]), in test [2] (setting [4]) and in test [3] (setting [4]) were 5.3 mM, 4.4 mM and 4.8 mM, respectively. For the same substance, the entries for the “Vmax (Xylose)” value in test [1] (setting [4]), in test [2] (setting [4]) and in test [3] (setting [4]) were 24.6 units per mg of enzyme, 15.1 units per mg of enzyme and 24.2 units per mg of enzyme, respectively.
